PMC8019741, “Efficacy Prediction of Four Pharmaceutical Formulations for Intramammary Administration Containing Aloe vera (L.) Burm. f. Combined With Ceftiofur or Cloxacillin in Lactating Cows as an Alternative Therapy to Treat Mastitis Caused by Staphylococcus aureus” (Frontiers in Veterinary Science, 2021)

Test system: Staphylococcus aureus ATCC 29213
Experiment: Macrodilution MIC test (CLSI)
Format: cell-based
Settings: for MIC of the antimicrobial not combined: alone
Experimental: A macrodilution test was performed to determine the MIC for the different combinations, following the recommendations from the CLSI ([47]).
Aloe vera gel extract (1,200 mg/ml) was diluted in Muller-Hinton II (Cation Adjusted) Broth (MHBCA) from BD® (Franklin Lakes, NJ, USA) up to a range of concentrations from 150 to 1,200 mg/ml. In addition, the standard solutions of cloxacillin and ceftiofur were diluted in MHBCA to prepare 2-fold serial dilutions at a concentrations range of 0.015–128 μg/ml.
Staphylococcus aureus ATCC 29213 (KWIK-STIK) was sourced from Microbiologics® (St. Cloud, MN, USA) and used to test the MIC for the different combinations of Aloe vera and cloxacillin or ceftiofur. First, S. aureus was rehydrated with Trypticase™ Soy Broth from BD® (Franklin Lakes, NJ, USA). Then, these bacteria were cultured in the Trypticase™ Soy Broth from BD® (Franklin Lakes, NJ, USA) with 5% sheep defibrinated blood (Franklin Lakes, NJ, USA) at an incubation temperature of 36 ± 1°C for 24 h. Once incubation ended, bacteria were preserved at −80°C using cryobank vials, while waiting for further processing. […] These cultured bacteria were then suspended in MHBCA from BD® (Franklin Lakes, NJ, USA), and the optical density was adjusted according to the McFarland Standard Solution to standardize the number of bacteria. From this broth, dilutions containing 5 × 10^5 UFC/ml were incubated along with dilutions of a combination of Aloe vera extract and antimicrobials. […] Additionally, S. aureus bacteria were incubated separately, in different tubes, with the extract, cloxacillin, and ceftiofur dilutions.

O=C1c2c(O)cccc2C([C@@H]2O[C@H](CO)[C@@H](O)[C@H](O)[C@H]2O)c2cc(CO)cc(O)c21 (stereo partly drawn) [aloin]
MIC (Staphylococcus aureus, ATCC29213, calculated from the MIC of Aloe vera in the combination and the concentration of aloin A + aloin B in the extract): 0.00366 µg/mL

CO/N=C(\C(=O)N[C@@H]1C(=O)N2C(C(=O)O)=C(CSC(=O)c3ccco3)CS[C@H]12)c1csc(N)n1 [ceftiofur]
MIC of the antimicrobial not combined: 0.25 µg/mL

Cc1onc(-c2ccccc2Cl)c1C(=O)N[C@@H]1C(=O)N2[C@@H]1SC(C)(C)[C@@H]2C(=O)O [cloxacillin]
MIC of the antimicrobial not combined: 0.25 µg/mL
